The test system of assay [1] is proline transporter TcAAAP069. Description: Proline transport assay in wild type (TcWT) epimastigotes. Particulars: for proline transport inhibition at 25 μM and 100 μM: TcWT epimastigotes, preliminary. The assay is classed as cell-based, Trypanosoma cruzi. The method, then:
(§1) Aliquots of epimastigote cultures (10^7 parasites) were centrifuged at 8,000 xg for 30 s, and washed once with PBS. […] Following incubation at 28°C, reaction was stopped by adding 1 mL of ice-cold PBS. Cells were centrifuged as indicated above, and washed twice with ice-cold PBS. Cell pellets were resuspended in 0.2 mL of water and counted for radioactivity in UltimaGold XR liquid scintillation cocktail (Packard Instrument Co., Meridien CT, USA). Cell viability was assessed by direct microscopic examination and viability assays by using “Cell Titer 96 Aqueous One Solution Cell Proliferation Assay (MTS)” (Promega, Madison, WI, USA) according to the manufacturer instructions. […] Non-specific uptake and carry over were assayed without incubation (T0), or incubated at 4°C. […] As a control, regular PBS buffer was used.

A further assay has as its system VERO cells. In words: Toxicity assay in VERO cells (gentian violet staining). Format: cell-based, African green monkey. Particulars: IC50 in VERO cells / IC50 in trypomastigotes (Y strain). The method, then: VERO cells (African green monkey Kidney, ATCC CCL-81) were cultured in MEM medium supplemented with 10% heat inactivated FCS, 0.15% (w/v) NaHCO3, 100 U/mL penicillin and 100 U/mL streptomycin at 37°C in 5% CO2.
The toxicity of the compounds was determined in VERO cells by the gentian violet staining assay. Briefly, the cells (1 x10^4 cells/well) were incubated in 96-well plates with the indicated compound or dimethyl sulfoxide (DMSO) as negative control and maintained at 37° C for 24 h. Then the cells were fixed for 15 min, and stained with 0.5% gentian violet. The absorbance was measured at 570 nm. The selectivity index (SI) was calculated for each CV analogue as the ratio between the IC50 obtained in mammalian cells and the IC50 in trypomastigotes. For the combined treatment, the results were presented as percentage of untreated cells.

The subject of assay [2] is proline transporter TcAAAP069. In words: Proline transport assay in TcAAAP069 overexpressing (Tc069) epimastigotes. The assay is classed as cell-based, Trypanosoma cruzi. Particulars: Tc069 vs TcWT. The method, then:
as §1

Assay [3] has as its system T. cruzi Tc069 epimastigotes Y strain. In words: Trypanocidal activity in TcAAAP069 overexpressing (Tc069) epimastigotes. The assay is classed as cell-based, Trypanosoma cruzi. The following applies: Tc069 vs TcWT. The method, then: (§2) Epimastigotes of T. cruzi were cultured as described above, in 24-wells plate at a start density of 0.5 x10^7 cells/mL in BHT medium. Parasites´ growth was evaluated at different concentrations of BZL, CV and CV structural analogues, and parasite proliferation was determined after 48 h. Trypanocidal activity in trypomastigotes and amastigotes was performed using 1 x10^6 cells/mL in 96-well plates and incubating at 37°C for 24 h in the presence of the corresponding drug. Growth was determined by counting in a Neubauer chamber and viability assays by using “Cell Titer 96 Aqueous One Solution Cell Proliferation Assay (MTS)” (Promega, Madison, WI, USA) according to the manufacturer’s instructions. Amastigotes were fixed with methanol, stained and mounted with Vectashield with DAPI (Vector Laboratories, Burlingame, CA, USA), and then the non-lysed cells were counted by using fluorescence microscopy.

For assay [4], the system named is T. cruzi epimastigotes Dm28c strain. In words: Trypanocidal activity in epimastigotes, Dm28c strain. The assay is classed as cell-based, Trypanosoma cruzi. Particulars: Dm28c vs Y. On the procedure: (§3) VERO cells (5 x10^4 per well) were infected with trypomastigotes (2.5 ×10^5 per well) for 4 h. After this period, the infected cells were washed twice with phosphate-buffered saline (PBS), the MEM medium was replaced, and the cells were kept in culture at 37°C, 5% CO2. In order to obtain intracellular amastigotes, the cells were lysed 4 days after infection using a cell scraper, collected, washed twice with PBS (or MEM) and counted using a hemocytometer. Trypomastigotes were obtained from infected VERO cells as previously described.
as §2

Assay [5] relates to T. cruzi epimastigotes CL Brener strain. Description: Trypanocidal activity in epimastigotes, CL Brener strain. The assay is classed as cell-based, Trypanosoma cruzi. Particulars: CL Brener vs Y. The method, then: as §3
Epimastigotes of T. cruzi were cultured as described above, in 24-wells plate at a start density of 0.5 x10^7 cells/mL in BHT medium. Parasites´ growth was evaluated at different concentrations of BZL, CV and CV structural analogues, and parasite proliferation was determined after 48 h. […] Growth was determined by counting in a Neubauer chamber and viability assays by using “Cell Titer 96 Aqueous One Solution Cell Proliferation Assay (MTS)” (Promega, Madison, WI, USA) according to the manufacturer’s instructions. Amastigotes were fixed with methanol, stained and mounted with Vectashield with DAPI (Vector Laboratories, Burlingame, CA, USA), and then the non-lysed cells were counted by using fluorescence microscopy.

As for `Cc1cc2c(s1)Nc1ccccc1N=C2N1CCN(C)CC1` [Olanzapine], in assay [1], the “proline transport inhibition at 25 μM and 100 μM” value was “only inhibited proline transport at 100 μM”. Besides, the “concentration producing death of parasites in the lapse time of the transport assay” value in assay [1] (epimastigotes) is “over 300 μM”.

Turning to `CC(C)/N=c1\cc2n(-c3ccc(Cl)cc3)c3ccccc3nc-2cc1Nc1ccc(Cl)cc1` [Clofazimine], the “Selectivity Index” value with VERO cells amounted to 36.1.

Regarding `CN(C)c1ccc(C(=C2C=CC(=[N+](C)C)C=C2)c2ccc(N(C)C)cc2)cc1` [Crystal Violet], the “effect on pH dependency of proline transport” value in assay [1] (CV 10 μM, citrate buffer pH 5.0-6.5) is “did not alter the pH dependency”. Further, in assay [1] (CV 10 μM, modified PBS vs regular PBS), the “proline transport inhibition in the absence of Na+ or K+ cations” value is on record as “No differences were observed”. Also, the “mechanism of inhibition of proline transport” value in assay [1] (TcWT, listed as CV) is listed as “reversible competitive mechanism of inhibition”. In addition, the “fold increase of proline transport IC50 in Tc069 vs control parasites” value in assay [2] is on record as 2.5 fold. In addition, in assay [3], the “fold reduction of trypanocidal IC50 in Tc069 vs wild type” value is listed as 47 fold. Besides, the “fold lower IC50 in Dm28c than in Y epimastigotes” value in assay [4] is reported as 31.8 fold. Moreover, in assay [5], the “fold lower IC50 in CL Brener than in Y epimastigotes” value is reported as 4.0 fold.

Regarding `Nc1ccc(S(=O)(=O)c2ccc(N)cc2)cc1` [Dapsone], the “proline transport inhibition at 25 μM and 100 μM” value in assay [1] is “did not inhibit the proline transport in any concentration assayed”.

Source of the values: publication PMC6994103 (PLoS Neglected Tropical Diseases, 2020).
